Data as given in patent US7700652B2, “Treating urinary incontinence using prodrugs of GABA analogs” (XenoPort, Inc., priority 2003, dated 2010).

Assay: drug release from the osmotic sustained release dosage form in artificial gastric fluid
Assay type: physicochemical
Conditions: sustained release oral osmotic dosage form of Example 1 (700 mg drug composition per bilayer core, one 10 mil passageway)
Method: Next, one 10 mil (0.254 mm) exit passageway is mechanically drilled through the semipermeable wall to connect the drug layer with the exterior of the dosage system. The residual solvent is removed by first drying for 120 hours at 50° C. and 30% relative humidity, then the systems are dried for 2 hours at 50° C. to remove excess moisture. The drug dosage form produced by this process provides: ˜90 wt % 1-{[(α-isobutanoyloxyethoxy)carbonyl]aminomethyl}-1-cyclohexane acetic acid, 4 wt % hydroxypropylmethylcellulose (11,200 molecular weight), 4 wt % polyethylene oxide of 5,000,000 molecular weight and 1 wt % magnesium stearate in the drug layer. The push composition comprises […] polyethylene oxide (7,500,000 molecular weight) 30 wt % sodium chloride, 5 wt % hydroxypropylmethylcellulose (11,200 molecular weight) 1 wt % red ferric oxide, 0.25 wt % magnesium stearate, and 0.075 wt % of butylated hydroxytoluene. The wall comprises 100 wt % cellulose acetate comprising a ˜40% acetyl content. The dosage form has one passageway, 10 mils (0.254 mm), and it has a 1-{[(α-isobutanoyloxyethoxy)carbonyl]aminomethyl}-1-cyclohexane acetic acid release rate of >20 mg/hr and a half life for drug release of >8 hours in artificial gastric fluid.

Question: Which release rate does the source give for `CC(OC(=O)NCC1(CC(=O)O)CCCCC1)OC(=O)C(C)C` (stereo not drawn) [1-{[(α-isobutanoyloxyethoxy)carbonyl]aminomethyl}-1-cyclohexane acetic acid] here?
Answer: > 20 mg/h
